Experimental data taken from publication PMC7614683, “A small molecule PI3Kα activator for cardioprotection and neuroregeneration” (Nature, 2023).

Target: T1, full length p110α/p85α (Homo sapiens, UniProt P42336)
T1 construct: Full-length human p110α was expressed either in a complex with full-length human p85α (for HTS, biochemistry and HDX-MS); 6xHis tag followed by TEV protease site (N); host or cells: Spodoptera frugiperda Sf9, baculovirus
Assay: HDX-MS
Format: binding
Experimental: Sample preparation: HDX-MS experiments were carried out as described previously. […] In total, three biological replicates, i.e. three separate protein preparations, each with exchange experiments carried out in triplicate were conducted. Data presented in the manuscript is a single biological replicate. Data acquisition and analysis were as follows: Each sample was thawed and injected onto an M-Class Acquity UPLC with HDX Technology (Waters) kept at 0.1°C. Proteins were digested in-line using an Enzymate Pepsin Column (Waters, #186007233) at 15°C for 2 min at 200 μl/min. Peptic peptides were then eluted onto an Acquity UPLC BEH C18 Column (Waters, #186002346) equilibrated in Pepsin-A buffer (0.1% formic acid) and separated using a 5-35% gradient of Pepsin-B buffer (0.1% formic acid, 99% acetonitrile) over 7 min at a flowrate of 40 μl/min. Data were collected on a Waters Cyclic IMS, with an electrospray ionisation source, from 50-2000 m/z. Data were collected in the HDMS^E mode. A single pass of the cyclic IMS was conducted. A “blank” sample of protein dilution buffer with quench was run between samples, and carry-over of peptides was routinely monitored. Five replicates were used to identify non-deuterated peptides. Criteria used to include peptides in the HDX-MS dataset were: minimum intensity 5000, minimum sequence length 5, maximum sequence length 25, a minimum of 3 fragment ions, a minimum of 0.1 products per amino acid, a minimum score of 6.62, a maximum MH+ Error of 10 ppm, identification in at least two datasets with a retention time RSD of less than 10%. Data was analysed using Protein Lynx Global Server (Waters) and DynamX (Waters). All peptides were manually inspected for EX1 kinetics and sufficient quality of the peptide envelope. Data quality, experiment design, and reporting of data meets the criteria as determined by the HDX-MS community. Uptake files were created using Baryonyx. Data are available via ProteomeXchange with identifier PXD037721.

[1] = PK3CA_HUMAN peptide 241-250, time point 3 of 5
[2] = PK3CA_HUMAN peptide 241-250, time point 4 of 5
[3] = PK3CA_HUMAN peptide 241-250, time point 5 of 5
[4] = PK3CA_HUMAN peptide 260-266, time point 1 of 5
[5] = PK3CA_HUMAN peptide 260-266, time point 2 of 5
[6] = PK3CA_HUMAN peptide 260-266, time point 3 of 5
[7] = PK3CA_HUMAN peptide 260-266, time point 4 of 5
[8] = PK3CA_HUMAN peptide 260-266, time point 5 of 5
[9] = PK3CA_HUMAN peptide 262-272, time point 1 of 5
[10] = PK3CA_HUMAN peptide 262-272, time point 2 of 5
[11] = PK3CA_HUMAN peptide 262-272, time point 3 of 5
[12] = PK3CA_HUMAN peptide 262-272, time point 4 of 5
[13] = PK3CA_HUMAN peptide 262-272, time point 5 of 5
[14] = PK3CA_HUMAN peptide 273-281, time point 1 of 5
[15] = PK3CA_HUMAN peptide 273-281, time point 2 of 5
[16] = PK3CA_HUMAN peptide 273-281, time point 3 of 5
[17] = PK3CA_HUMAN peptide 273-281, time point 4 of 5
[18] = PK3CA_HUMAN peptide 273-281, time point 5 of 5
[19] = PK3CA_HUMAN peptide 278-286, time point 1 of 5
[20] = PK3CA_HUMAN peptide 278-286, time point 2 of 5
[21] = PK3CA_HUMAN peptide 278-286, time point 3 of 5
[22] = PK3CA_HUMAN peptide 278-286, time point 4 of 5
[23] = PK3CA_HUMAN peptide 278-286, time point 5 of 5
[24] = PK3CA_HUMAN peptide 287-293, time point 1 of 5
[25] = PK3CA_HUMAN peptide 287-293, time point 2 of 5
[26] = PK3CA_HUMAN peptide 287-293, time point 3 of 5
[27] = PK3CA_HUMAN peptide 287-293, time point 4 of 5
[28] = PK3CA_HUMAN peptide 287-293, time point 5 of 5
[29] = PK3CA_HUMAN peptide 288-293, time point 1 of 5
[30] = PK3CA_HUMAN peptide 288-293, time point 2 of 5
[31] = PK3CA_HUMAN peptide 288-293, time point 3 of 5
[32] = PK3CA_HUMAN peptide 288-293, time point 4 of 5
[33] = PK3CA_HUMAN peptide 288-293, time point 5 of 5
[34] = PK3CA_HUMAN peptide 326-333, time point 1 of 5
[35] = PK3CA_HUMAN peptide 326-333, time point 2 of 5
[36] = PK3CA_HUMAN peptide 326-333, time point 3 of 5
[37] = PK3CA_HUMAN peptide 326-333, time point 4 of 5

T1 sequence (P42336 whole entry): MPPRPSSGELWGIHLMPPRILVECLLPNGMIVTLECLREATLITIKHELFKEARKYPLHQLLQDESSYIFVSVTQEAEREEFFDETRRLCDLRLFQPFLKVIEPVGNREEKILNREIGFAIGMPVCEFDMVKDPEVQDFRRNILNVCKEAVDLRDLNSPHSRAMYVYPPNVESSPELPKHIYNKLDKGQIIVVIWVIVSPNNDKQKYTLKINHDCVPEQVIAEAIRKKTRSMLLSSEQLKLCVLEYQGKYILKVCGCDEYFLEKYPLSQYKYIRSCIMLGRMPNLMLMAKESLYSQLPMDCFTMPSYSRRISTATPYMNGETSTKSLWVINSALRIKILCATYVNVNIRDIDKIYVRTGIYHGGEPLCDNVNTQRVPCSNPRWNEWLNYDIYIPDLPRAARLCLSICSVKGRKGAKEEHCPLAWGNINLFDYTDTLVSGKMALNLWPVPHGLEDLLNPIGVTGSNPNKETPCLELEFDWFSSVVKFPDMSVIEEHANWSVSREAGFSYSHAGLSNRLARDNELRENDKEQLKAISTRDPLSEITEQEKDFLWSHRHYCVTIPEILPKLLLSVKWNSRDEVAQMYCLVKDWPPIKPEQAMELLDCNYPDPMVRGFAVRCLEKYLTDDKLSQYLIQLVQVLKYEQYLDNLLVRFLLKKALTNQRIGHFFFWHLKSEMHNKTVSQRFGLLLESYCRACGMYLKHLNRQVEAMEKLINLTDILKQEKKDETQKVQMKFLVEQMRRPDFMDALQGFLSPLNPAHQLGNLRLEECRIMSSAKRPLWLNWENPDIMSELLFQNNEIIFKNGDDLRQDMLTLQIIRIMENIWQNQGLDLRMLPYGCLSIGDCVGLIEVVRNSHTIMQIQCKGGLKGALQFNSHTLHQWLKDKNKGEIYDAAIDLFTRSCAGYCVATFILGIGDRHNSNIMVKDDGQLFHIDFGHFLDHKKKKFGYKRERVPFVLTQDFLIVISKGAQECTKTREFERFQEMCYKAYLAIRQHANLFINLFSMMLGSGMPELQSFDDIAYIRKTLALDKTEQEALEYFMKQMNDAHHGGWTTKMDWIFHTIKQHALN
T1 sequence (P27986 whole entry partner): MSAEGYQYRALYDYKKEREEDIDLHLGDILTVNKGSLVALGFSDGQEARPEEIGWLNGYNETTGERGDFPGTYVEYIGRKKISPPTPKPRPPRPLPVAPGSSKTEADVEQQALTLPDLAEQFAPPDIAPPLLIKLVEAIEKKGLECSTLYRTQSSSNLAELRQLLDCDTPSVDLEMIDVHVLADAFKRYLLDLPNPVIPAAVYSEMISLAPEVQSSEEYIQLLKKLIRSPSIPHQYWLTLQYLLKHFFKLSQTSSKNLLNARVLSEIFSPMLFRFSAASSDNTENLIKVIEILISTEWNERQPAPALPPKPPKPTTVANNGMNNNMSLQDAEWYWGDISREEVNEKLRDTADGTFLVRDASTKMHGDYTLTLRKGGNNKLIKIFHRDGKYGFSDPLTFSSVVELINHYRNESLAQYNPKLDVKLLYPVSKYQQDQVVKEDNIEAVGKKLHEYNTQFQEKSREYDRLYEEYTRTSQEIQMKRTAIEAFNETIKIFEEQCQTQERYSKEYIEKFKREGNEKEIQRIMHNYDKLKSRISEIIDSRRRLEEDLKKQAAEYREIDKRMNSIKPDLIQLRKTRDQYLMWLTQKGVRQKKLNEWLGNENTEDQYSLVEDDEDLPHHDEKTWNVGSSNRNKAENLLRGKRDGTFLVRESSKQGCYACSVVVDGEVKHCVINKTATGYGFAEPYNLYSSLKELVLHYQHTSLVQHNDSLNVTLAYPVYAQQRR

With CCN1CCN(c2ccc(Nc3cc(Nc4cccc5c4N(C(C)=O)CC5)ccn3)cc2)CC1 [Compound 1938] the “HDX difference (%D)” value [1] was 0.6%, the “HDX difference (Da)” value [1] was 0.0529 Da and the “HDX difference (%D)” value [2] was 0.112%. For the same molecule, the “HDX difference (Da)” value [2] was 0.01 Da, the “HDX difference (%D)” value [3] was 0.113% and the “HDX difference (Da)” value [3] was 0.01 Da. For the same molecule, the “HDX difference (%D)” value [4] was -0.0157%, the “HDX difference (Da)” value [4] was -0.000943 Da and the “HDX difference (%D)” value [5] was 0.0014%. For the same molecule, the “HDX difference (Da)” value [5] was 8.39e-5 Da, the “HDX difference (%D)” value [6] was 0.136% and the “HDX difference (Da)” value [6] was 0.00818 Da. For the same molecule, the “HDX difference (%D)” value [7] was 0.659%, the “HDX difference (Da)” value [7] was 0.04 Da and the “HDX difference (%D)” value [8] was 1.2%. For the same molecule, the “HDX difference (Da)” value [8] was 0.07 Da, the “HDX difference (%D)” value [9] was -0.8% and the “HDX difference (Da)” value [9] was -0.07 Da. The “HDX difference (%D)” value [10] was 0.264%, the “HDX difference (Da)” value [10] was 0.0238 Da and the “HDX difference (%D)” value [11] was 0.3%. The “HDX difference (Da)” value [11] was 0.0282 Da, the “HDX difference (%D)” value [12] was -0.571% and the “HDX difference (Da)” value [12] was -0.05 Da. The “HDX difference (%D)” value [13] was -0.7%, the “HDX difference (Da)” value [13] was -0.06 Da and the “HDX difference (%D)” value [14] was 1.3%. The “HDX difference (Da)” value [14] was 0.10 Da, the “HDX difference (%D)” value [15] was 0.9% and the “HDX difference (Da)” value [15] was 0.07 Da. The “HDX difference (%D)” value [16] was 0.8%, the “HDX difference (Da)” value [16] was 0.06 Da and the “HDX difference (%D)” value [17] was 0.743%. The “HDX difference (Da)” value [17] was 0.06 Da, the “HDX difference (%D)” value [18] was 0.428% and the “HDX difference (Da)” value [18] was 0.0342 Da. For the same molecule, the “HDX difference (%D)” value [19] was -0.131%, the “HDX difference (Da)” value [19] was -0.01 Da and the “HDX difference (%D)” value [20] was -0.178%. For the same molecule, the “HDX difference (Da)” value [20] was -0.0142 Da, the “HDX difference (%D)” value [21] was -0.652% and the “HDX difference (Da)” value [21] was -0.05 Da. The “HDX difference (%D)” value [22] was -1.2%, the “HDX difference (Da)” value [22] was -0.10 Da and the “HDX difference (%D)” value [23] was -1.0%. The “HDX difference (Da)” value [23] was -0.08 Da, the “HDX difference (%D)” value [24] was 0.00815% and the “HDX difference (Da)” value [24] was 0.000489 Da. The “HDX difference (%D)” value [25] was 0.168%, the “HDX difference (Da)” value [25] was 0.01 Da and the “HDX difference (%D)” value [26] was -0.19%. The “HDX difference (Da)” value [26] was -0.0114 Da, the “HDX difference (%D)” value [27] was -0.0604% and the “HDX difference (Da)” value [27] was -0.00362 Da. The “HDX difference (%D)” value [28] was -0.4%, the “HDX difference (Da)” value [28] was -0.0241 Da and the “HDX difference (%D)” value [29] was -0.334%. For the same molecule, the “HDX difference (Da)” value [29] was -0.0167 Da, the “HDX difference (%D)” value [30] was -0.17% and the “HDX difference (Da)” value [30] was -0.00848 Da. For the same molecule, the “HDX difference (%D)” value [31] was -0.5%, the “HDX difference (Da)” value [31] was -0.0241 Da and the “HDX difference (%D)” value [32] was 0.8%. The “HDX difference (Da)” value [32] was 0.04 Da, the “HDX difference (%D)” value [33] was -0.113% and the “HDX difference (Da)” value [33] was -0.00564 Da. For the same molecule, the “HDX difference (%D)” value [34] was -1.8%, the “HDX difference (Da)” value [34] was -0.13 Da and the “HDX difference (%D)” value [35] was -4.4%. The “HDX difference (Da)” value [35] was -0.31 Da, the “HDX difference (%D)” value [36] was -3.0% and the “HDX difference (Da)” value [36] was -0.21 Da. The “HDX difference (%D)” value [37] was -3.1%, the “HDX difference (Da)” value [37] was -0.21 Da and the “HDX difference (%D)” value (PK3CA_HUMAN peptide 326-333, time point 5 of 5) was -4.2%.
